Bridge positions count the residues as written; N and C are the ends. Square brackets hold non-standard residues; d marks the D form. Peptide text beside a SMILES is read from it. I, II: the chains in the order shown. Ava = NCCCCC(=O)O; βAla = NCCC(=O)O
Columns and labels:
Format in all cases: cell-based
HIV-1 NL 4-3 [1] = experiment: HIV-1 infection of C8166 cells (syncytia formation, p24 ELISA) with HIV-1 NL 4-3; conditions: for P 24: 1 μM; for IC50: C8166 cells, HIV-1 subtype B NL 4-3, Table 3
Method: (§1) HIV-1 NL 4-3 isolate (Adachi et al., 1986; Barré-Sinoussi et al., 1983) and highly cytopathic Zairian HIV-1 NDK isolate (Ellrodt et al., 1984) was propagated in permissive CEM cells (Nara et al., 1987). Uninfected CEM and C8166 (Salahuddin et al., 1983) were maintained in RPMI 1640 (R10) with ultraglutamine (cambrex, Vervier, Belgium), penicillin (100 U/ml), streptomycin (100 μg/ml), and 10% heat-inactivated fetal calf serum (Cambrex).
(§2) Samples of 3×10^5/100 μL C8166 cells were preincubated in 96-well microtiter plates in culture medium containing various concentrations of peptide. After a 1 h treatment at 37° C., 100 μl of diluted viral solution of HIV-1 was added. The cells were exposed to the virus for 1 h at 37° C. at a multiplicity of infection of 1000 TCID50 per ml. The cells were washed three times and cultured at 3×10^5/ml of R10 with the treatment in 24-well plates incubated at 37° C. C8166 culture medium was replaced at Day-4 post-infection. The treatment was permanent before virus adsorption, during virus adsorption and after infection. Assays on C8166 cells have been performed at least twice and in duplicate. Toxicity was evaluated by daily cell count and trypan-blue exclusion assay. Infection of C8166 T-cells with HIV-1 was assessed by virus-induced cytopathic effects (syncytia formation) and by quantification of cell free p24 viral protein in the culture supernatants. Measurements of HIV-1 p24^gag concentration in the culture supernatants were achieved by ELISA (ALLIANCE® HIV-1 p24 kit, Perkin Elmer, life sciences, USA).

HIV-1 NL 4-3 [2] = experiment: as above; set-up: key: ++, +, (+), (+)− and − represent decreasing numbers of syncitia formed; ++, +, (+), (+)− and − represent decreasing numbers of syncitia formed; ++, +, (+), (+)− and − represent decreasing numbers of syncitia formed; ++, +, (+), (+)− and − represent decreasing numbers of syncitia formed; ++, +, (+), (+)− and − represent decreasing numbers of syncitia formed; conditions: 1 μM; Table 1
Method: as §1, §2

HIV-1 NL 4-3 [3] = experiment: as above; set-up: key: ++, +, (+), (+)− and − represent decreasing numbers of syncitia formed.; ++, +, (+), (+)− and − represent decreasing numbers of syncitia formed.; ++, +, (+), (+)− and − represent decreasing numbers of syncitia formed.; ++, +, (+), (+)− and − represent decreasing numbers of syncitia formed.; ++, +, (+), (+)− and − represent decreasing numbers of syncitia formed; conditions: 1 μM; Table 2
Method: as §1, §2

HIV-1 NL 4-3 [4] = experiment: Infection of human peripheral blood lymphocytes (PBL) with NL 4-3 strain, p24 ELISA; conditions: PBL, NL 4-3 strain; Table 4
Method: Peripheral blood lymphocytes from an HIV-1 negative donor were grown as described earlier, maintained in RPMI 1640 with ultraglutamine, supplemented with IL2 (20 μg/ml), penicillin (100 U/ml), streptomycin (100 μg/ml), and 10% heat-inactivated fetal calf serum. Cells were stimulated three days in the medium supplemented with phytohemagglutinin (20 U/ml PHA P, DIFCO, Detroit Mich.).
Samples of 10^6/100 μL PBL cells were preincubated in 96-well microtiter plates in culture medium containing various concentrations of peptides. After a 1 h treatment at 37° C., 100 μl of diluted viral solution of HIV-1 was added. The cells were exposed to the virus for 1 h at 37° C. at a multiplicity of infection of 1000 TCID50 per ml. The cells were washed three times and cultured at […] of medium with the treatment in 24-well plates incubated at 37° in culture medium with the peptides in 5% CO2. The treatment was permanent before virus adsorption, during virus adsorption and after infection. The PBL culture medium was replaced every 3-4 days during three weeks always in the presence of peptide. The cell viability was assessed by cell counts and trypan-blue exclusion assay. The viral production in the culture supernatant was quantified by p24 ELISA test, as described earlier. All the experiments have been done in blind-tests. Tests have been done in duplicate.

Cc1cn([C@H]2C[C@H](N=[N+]=[N-])[C@@H](CO)O2)c(=O)[nH]c1=O [AZT, reference compound]
P 24 (HIV-1 NL 4-3 [1]; Day 4, Table 1): NEG | P 24 (HIV-1 NL 4-3 [1]; Day 4, Table 2): NEG | P 24 (HIV-1 NL 4-3 [1]; Day 7, Table 1): NEG | Day 4 syncitia formed (HIV-1 NL 4-3 [2]): − | Day 5 syncitia formed (HIV-1 NL 4-3 [2]): − | Day 6 syncitia formed (HIV-1 NL 4-3 [2]): − | Day 7 syncitia formed (HIV-1 NL 4-3 [2]): − | Day 4 syncitia formed (HIV-1 NL 4-3 [3]): − | Day 5 syncitia formed (HIV-1 NL 4-3 [3]): − | Day 6 syncitia formed (HIV-1 NL 4-3 [3]): − | Day 7 syncitia formed (HIV-1 NL 4-3 [3]): −

CC(C)C[C@H](NC(=O)[C@@H]1CCCN1C(=O)[C@H](CO)NC(=O)[C@H](Cc1ccc(O)cc1)NC(=O)CNC(=O)[C@H](CCC(N)=O)NC(=O)[C@@H](N)CCCNC(=N)N)C(=O)NCCCC[C@H](NC(=O)[C@H](CC(C)C)NC(=O)[C@@H]1CCCN1C(=O)[C@H](CO)NC(=O)[C@H](Cc1ccc(O)cc1)NC(=O)CNC(=O)[C@H](CCC(N)=O)NC(=O)[C@@H](N)CCCNC(=N)N)C(=O)NCCC(=O)O [RL dimer, (RQGYSPL)2-K-βA, reference compound] (I: H-RQGYSPLK[βAla]-OH / II: H-RQGYSPL; amide I:8-II:C; N-terminus assumed)
IC50 (HIV-1 NL 4-3 [1]): 20 nM | IC50 (HIV-1 NL 4-3 [4]): 10 nM | IC100 (HIV-1 NL 4-3 [4]): 0.1 µM

N=C(N)NCCC[C@H](N)C(=O)N[C@@H](CCC(N)=O)C(=O)NCC(=O)N[C@@H](Cc1ccc(O)cc1)C(=O)N[C@@H](CO)C(=O)NCCCC[C@H](NC(=O)[C@H](CO)NC(=O)[C@H](Cc1ccc(O)cc1)NC(=O)CNC(=O)[C@H](CCC(N)=O)NC(=O)[C@@H](N)CCCNC(=N)N)C(=O)NCCCCC(=O)O [RS dimer valeric acid, (RQGYS)2-K—NHCH2CH2CH2CH2COOH] (I: H-RQGYSK[Ava]-OH / II: H-RQGYS; amide I:6-II:C)
IC50 (HIV-1 NL 4-3 [1]): 50 nM

N=C(N)NCCC[C@H](N)C(=O)N[C@@H](CCC(N)=O)C(=O)NCC(=O)N[C@@H](Cc1ccc(O)cc1)C(=O)N[C@@H](CO)C(=O)NCCCCC(=O)O [RS monomer valeric acid, RQGYS-NHCH2CH2CH2CH2COOH] (H-RQGYS[Ava]-OH)
IC50 (HIV-1 NL 4-3 [1]): 200 nM

N=C(N)NCCC[C@H](N)C(=O)N[C@@H](CCC(N)=O)C(=O)NCC(=O)N[C@@H](Cc1ccc(O)cc1)C(=O)N[C@@H](CO)C(=O)NCCCC[C@H](NC(=O)[C@H](CO)NC(=O)[C@H](Cc1ccc(O)cc1)NC(=O)CNC(=O)[C@H](CCC(N)=O)NC(=O)[C@@H](N)CCCNC(=N)N)C(=O)NCCC(=O)O [RS, (RQGYS)2-K-βA-OH, reference compound] (I: H-RQGYSK[βAla]-OH / II: H-RQGYS; amide I:6-II:C; N-terminus assumed)
IC50 (HIV-1 NL 4-3 [1]): 100 nM

From US20060229433A1, “Modified antiviral peptides with increased activity and cell membrane affinity” (priority 2003, published 2006)
